*1 amine or outer side, *2 acyl side, *3 side chain or, on linkers, in order; H or OH if unused. Where a SMILES comes first, the peptide text is derived from it. Bridges are numbered along the chain shown (N, C = ends). Roman numbers before positions name the chains, in order. [ ]: non-standard residue; d: D form. Actinocin(9to1) = Cc1c2oc3c(C)ccc(C(=O)[*:1])c3nc-2c(C(=O)[*:2])c(N)c1=O; NMeV = CN[C@H](C(=O)O)C(C)C; Sar = CNCC(=O)O
Legend:
[1] = tested on: C57BL/6 mice with HFD-induced obesity; test: Third-ventricle injection of TGFβ antagonist, GTT and ITT in mice with HFD-induced obesity; assay type: in vivo; settings: HFD for 3 months; single injection in the third ventricle, overnight-fasted; vs vehicle; 2-hour treatment duration
Excerpt: (§1) Central TGFβ blockade reverses glucose disorder under obesity or aging: It was studied whether TGFβ blockade could be applied to the CNS in order to reverse glucose and insulin disorders under disease conditions. To address this question, a mouse model was employed with HFD-induced obesity and therefore glucose and insulin intolerance. In this study, C57BL/6 mice were maintained under a HFD vs. a chow for 3 months. Subsequently, TGFβ antagonist SB431542 vs. vehicle was administrated to overnight-fasted mice through pre-implanted cannula. […] In parallel, using aging paradigm, it was further asked if TGFβ blockade could be used to intervene with glucose and insulin disorders independently of HFD feeding. To address this question, a similar procedure was applied to young vs. old mice; both mice were maintained on a normal chow since weaning. As shown in FIG. 7e-h, aging was associated with impairment of glucose tolerance and insulin tolerance in control group. […] Altogether, central inhibition of TGFβ through a pharmacological approach acutely normalizes the brain function to improve glucose and insulin homeostasis and treat type-2 diabetes.
(§2) Animals. […] Food intake and body weight of mice were measured using a laboratory scale. […] Blood glucose levels during GTT and ITT were measured with LifeScan® blood glucose monitoring system. […]

[2] = tested on: old mice maintained on a normal chow; test: Third-ventricle injection of TGFβ antagonist, GTT and ITT in aging paradigm; assay type: in vivo; settings: hypothalamic third-ventricle injection
Excerpt: as §1, §2

hypothalamic GT1-7 cells = test: IκBα mRNA levels in GT1-7 cells after TGF-β1 treatment; assay type: cell-based; settings: transcription inhibitor added to TGF-β1-treated cells
Excerpt: TGF-β degrades IκBα mRNA to atypically activate NF-κB: RNA SGs/PBs have the function to degrade mRNAs by targeting the AU-rich element (AUE) at the 3′ untranslated region (UTR) (36-38). […] This information led to the suspicion that TGF-β could work to degrade IκBα mRNA. […] To test if TGF-β induced IκBα mRNA decay is accountable for the glucose metabolism disorder, an experiment was designed to study if the pro-diabetic effect of brain TGF-β excess could be reversed through directly increasing hypothalamic IκBα mRNA. Using an approach which was established previously (23), a lentiviral system was employed to deliver exogenous Iκbα mRNA into the mediobasal hypothalamus of chow-fed C57BL/6 mice, and indeed, this lentivirus-delivered Iκbα mRNA prevented TGF-β1 injection from activating hypothalamic NF-κB (FIG. 5f). Metabolic analysis confirmed that this treatment attenuated the effect of TGF-β1 from impairing insulin-dependent glucose control (FIG. 5g).
Cell culture. GT1-7 cells were cultured as described previously (14). Briefly, GT1-7 cells were maintained in Dulbecco's Modified Eagle's Medium (Invitrogen) with 10% fetal bovine serum (Hyclone) and penicillin/streptomycin (Invitrogen), at 37° C. in a humidified atmosphere containing 5% CO2. Cells were fasted in serum-free medium for an overnight period, and then were subjected to TGF-β1 treatment at the indicated dose and time course.

Row | Structure (SMILES) | glucose intolerance (GTT) [1] | insulin intolerance (ITT) [1] | glucose intolerance (GTT) [2] | insulin intolerance (ITT) [2] | IκBα mRNA decay (hypothalamic GT1-7 cells)
1 | NC(=O)c1ccc(-c2nc(-c3ccc4c(c3)OCO4)c(-c3ccccn3)[nH]2)cc1 [SB431542, 4-[4-(1,3-benzodioxol-5-yl)-5-(2-pyridinyl)-1H-imidazol-2-yl]benzamide] | significantly reduced | significantly reduced | significant reductions | significant reductions | –
2 | Cc1c2oc3c(C)ccc(C(=O)N[C@@H]4C(=O)N[C@H](C(C)C)C(=O)N5CCC[C@H]5C(=O)N(C)CC(=O)N(C)[C@@H](C(C)C)C(=O)O[C@@H]4C)c3nc-2c(C(=O)N[C@@H]2C(=O)N[C@H](C(C)C)C(=O)N3CCC[C@H]3C(=O)N(C)CC(=O)N(C)[C@@H](C(C)C)C(=O)O[C@@H]2C)c(N)c1=O [actinomycin D, reference compound] (I: T[dV]P[Sar][NMeV] / II: T[dV]P[Sar][NMeV]; ester I:1-I:C, II:1-II:C; linker I:N-II:N via Actinocin(9to1)) | – | – | – | – | further accelerated

Reference: patent US20170114128A1, “USE OF TGF-BETA ANTAGONISTS OF TREAT TYPE-2 DIABETES” (ALBERT EINSTEIN COLLEGE OF MEDICINE, INC., priority 2014, published 2017)
